# Test results reported in BindingDB's records for doi:10.1021/jm058041z (University of Würzburg, 2005).
# Test: Inhibition of acetylcholinesterase
structure (smiles),measurement,value
"Nc1c2c(nc3c(CO)cccc13)CCCC2 [9-amino-5,6,7,8-tetrahydroacridin-4yl)methano]",IC50,0.125 µM
